Reference: US10499642B2, “Isoxazoline-substituted benzamides and analogues as insecticides” (SYNGENTA PARTICIPATIONS AG, priority 2015, dated 2019)
Read-outs that look alike come from different tables or passages of the source.

How the values were obtained:
Assay type in all cases: in vivo
Spodoptera littoralis = Spodoptera littoralis (Egyptian cotton leaf worm) cotton leaf disc test; conditions: foliar, 72 h, read-out: control (at least one of mortality, anti-feedant effect, and growth inhibition)
Method in brief: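 Five first-instar larvae per disc were placed on dried, sprayed cotton leaf discs held on agar. Test solutions were aqueous, made from 10′000 ppm DMSO stocks. At day 3, control was counted when mortality, feeding deterrence or growth inhibition exceeded the untreated discs.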

Plutella xylostella = Plutella xylostella (diamond back moth) artificial diet test; conditions: 120 h, read-out: effect in at least one of the two categories (mortality or growth inhibition)
Method in brief: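 At a 200 ppm rate, test solutions were applied to artificial diet and allowed to dry before second-instar larvae were added. Five days later, larval mortality and growth inhibition were rated against untreated samples.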

Diabrotica Balteata = experiment: Diabrotica balteata (corn root worm) maize sprout test; conditions: 96 h, read-out: effect in at least one of the two categories (mortality or growth inhibition)
Method in brief: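 Scoring covered both mortality and growth inhibition relative to untreated controls, 4 days post-infestation. Test solutions at 200 ppm, diluted in water from 10′000 ppm DMSO stocks, were sprayed onto agar-held maize sprouts, which after drying received 6 to 10 L2 larvae each well.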

Myzus persicae = Myzus persicae (green peach aphid) sunflower leaf disc test; conditions: foliar, 144 h
Protocol: Myzus persicae (Green Peach Aphid):
Sunflower leaf discs were placed on agar in a 24-well microtiter plate and sprayed with test solutions at an application rate of 200 ppm. After drying, the leaf discs were infested with an aphid population of mixed ages. After an incubation period of 6 days after treatment, samples were checked for mortality. The following compounds gave at least 80% mortality of Myzus persicae: […]

Tetranychus urticae = Tetranychus urticae (two-spotted spider mite) bean leaf disc test; conditions: foliar, 192 h
Protocol: Tetranychus urticae (Two-Spotted Spider Mite):
Bean leaf discs on agar in 24-well microtiter plates were sprayed with aqueous test solutions prepared from 10′000 ppm DMSO stock solutions. After drying the leaf discs were infested with a mite population of mixed ages. The samples were assessed for mortality on mixed population (mobile stages) 8 days after infestation.

Thrips tabaci = Thrips tabaci (onion thrips) sunflower leaf disc test; conditions: foliar, 144 h
Protocol: Thrips tabaci (Onion Thrips):
Sunflower leaf discs were placed on agar in 24-well microtiter plates and sprayed with aqueous test solutions prepared from 10′000 ppm DMSO stock solutions. After drying the leaf discs were infested with a thrips population of mixed ages. The samples were assessed for mortality 6 days after infestation.

CCOCCOC1=NOC(NC(=O)c2ccc(C3=NO[C@@](c4cc(Cl)c(Cl)c(Cl)c4)(C(F)(F)F)C3)cc2C)C1 (stereo partly drawn) [Compound A107, N-[3-(2-ethoxyethoxy)-4,5-dihydroisoxazol-5-yl]-2-methyl-4-[(5S)-5-(3,4,5-trichlorophenyl)-5-(trifluoromethyl)-4H-isoxazol-3-yl]benzamide]
≥ 80%: percent control (mortality, anti-feedant effect or growth inhibition) at 200 ppm (Spodoptera littoralis) | percent effect (mortality or growth inhibition) at 200 ppm (Plutella xylostella) | percent effect (mortality or growth inhibition) at 200 ppm (Diabrotica Balteata) | mortality at 200 ppm (Myzus persicae) | mortality at 200 ppm (Tetranychus urticae) | mortality at 200 ppm (Thrips tabaci)

CSC1=NOC(NC(=O)c2ccc(C3=NO[C@@](c4cc(Cl)cc(C(F)(F)F)c4)(C(F)(F)F)C3)cc2C)C1 (stereo partly drawn) [Compound A050]
≥ 80%: percent control (mortality, anti-feedant effect or growth inhibition) at 200 ppm (Spodoptera littoralis) | percent effect (mortality or growth inhibition) at 200 ppm (Plutella xylostella) | percent effect (mortality or growth inhibition) at 200 ppm (Diabrotica Balteata) | mortality at 200 ppm (Myzus persicae) | mortality at 200 ppm (Tetranychus urticae) | mortality at 200 ppm (Thrips tabaci)

Cc1cc(C2=NO[C@@](c3cc(Cl)c(Cl)c(Cl)c3)(C(F)(F)F)C2)ccc1C(=O)N(C=O)C1CC(Cl)=NO1 (stereo partly drawn) [Compound A010, N-(3-chloro-4,5-dihydroisoxazol-5-yl)-N-formyl-2-methyl-4-[(5S)-5-(3,4,5-trichlorophenyl)-5-(trifluoromethyl)-4H-isoxazol-3-yl]benzamide]
≥ 80%: percent control (mortality, anti-feedant effect or growth inhibition) at 200 ppm (Spodoptera littoralis) | percent effect (mortality or growth inhibition) at 200 ppm (Plutella xylostella) | percent effect (mortality or growth inhibition) at 200 ppm (Diabrotica Balteata) | mortality at 200 ppm (Myzus persicae) | mortality at 200 ppm (Tetranychus urticae) | mortality at 200 ppm (Thrips tabaci)

COC1=NOC(NC(=O)c2ccc(C3=NO[C@@](c4cc(Cl)c(Cl)c(Cl)c4)(C(F)(F)F)C3)cc2Cl)C1 (stereo partly drawn) [Compound A043]
≥ 80%: percent control (mortality, anti-feedant effect or growth inhibition) at 200 ppm (Spodoptera littoralis) | percent effect (mortality or growth inhibition) at 200 ppm (Plutella xylostella) | percent effect (mortality or growth inhibition) at 200 ppm (Diabrotica Balteata) | mortality at 200 ppm (Myzus persicae) | mortality at 200 ppm (Tetranychus urticae) | mortality at 200 ppm (Thrips tabaci)

CCCCOC1=NOC(NC(=O)c2ccc(C3=NO[C@@](c4cc(Cl)c(F)c(Cl)c4)(C(F)(F)F)C3)cc2C)C1 (stereo partly drawn) [Compound A104]
≥ 80%: percent control (mortality, anti-feedant effect or growth inhibition) at 200 ppm (Spodoptera littoralis) | percent effect (mortality or growth inhibition) at 200 ppm (Plutella xylostella) | percent effect (mortality or growth inhibition) at 200 ppm (Diabrotica Balteata) | mortality at 200 ppm (Myzus persicae) | mortality at 200 ppm (Tetranychus urticae) | mortality at 200 ppm (Thrips tabaci)

Cc1cc(C2=NO[C@@](c3cc(Cl)c(F)c(Cl)c3)(C(F)(F)F)C2)ccc1C(=O)NC1CC(Br)=NO1 (stereo partly drawn) [Compound A001, N-(3-bromo-4,5-dihydroisoxazol-5-yl)-4-[(5S)-5-(3,5-dichloro-4-fluoro-phenyl)-5-(trifluoromethyl)-4H-isoxazol-3-yl]-2-methyl-benzamide]
≥ 80%: percent control (mortality, anti-feedant effect or growth inhibition) at 200 ppm (Spodoptera littoralis) | percent effect (mortality or growth inhibition) at 200 ppm (Plutella xylostella) | percent effect (mortality or growth inhibition) at 200 ppm (Diabrotica Balteata) | mortality at 200 ppm (Myzus persicae) | mortality at 200 ppm (Tetranychus urticae) | mortality at 200 ppm (Thrips tabaci)

CCC1(COC2=NOC(NC(=O)c3ccc(C4=NO[C@@](c5cc(Cl)c(Cl)c(Cl)c5)(C(F)(F)F)C4)cc3C)C2)COC1 (stereo partly drawn) [Compound A122, N-[3-[(3-ethyloxetan-3-yl)methoxy]-4,5-dihydroisoxazol-5-yl]-2-methyl-4-[(5S)-5-(3,4,5-trichlorophenyl)-5-(trifluoromethyl)-4H-isoxazol-3-yl]benzamide]
≥ 80%: percent control (mortality, anti-feedant effect or growth inhibition) at 200 ppm (Spodoptera littoralis) | percent effect (mortality or growth inhibition) at 200 ppm (Plutella xylostella) | percent effect (mortality or growth inhibition) at 200 ppm (Diabrotica Balteata) | mortality at 200 ppm (Myzus persicae) | mortality at 200 ppm (Tetranychus urticae) | mortality at 200 ppm (Thrips tabaci)

Cc1cc(C2=NO[C@@](c3cc(Cl)c(F)c(Cl)c3)(C(F)(F)F)C2)ccc1C(=O)N(C=O)C1CC(C(F)(F)F)=NO1 (stereo partly drawn) [Compound A004, 4-[(5S)-5-(3,5-dichloro-4-fluoro-phenyl)-5-(trifluoromethyl)-4H-isoxazol-3-yl]-N-formyl-2-methyl-N-[3-(trifluoromethyl)-4,5-dihydroisoxazol-5-yl]benzamide]
≥ 80%: percent control (mortality, anti-feedant effect or growth inhibition) at 200 ppm (Spodoptera littoralis) | percent effect (mortality or growth inhibition) at 200 ppm (Plutella xylostella) | percent effect (mortality or growth inhibition) at 200 ppm (Diabrotica Balteata) | mortality at 200 ppm (Myzus persicae) | mortality at 200 ppm (Tetranychus urticae) | mortality at 200 ppm (Thrips tabaci)

CC(=O)C1=NOC(NC(=O)c2ccc(C3=NO[C@@](c4cc(Cl)c(F)c(Cl)c4)(C(F)(F)F)C3)cc2C)C1 (stereo partly drawn) [Compound A015, N-(3-acetyl-4,5-dihydroisoxazol-5-yl)-4-[(5S)-5-(3,5-dichloro-4-fluoro-phenyl)-5-(trifluoromethyl)-4H-isoxazol-3-yl]-2-methyl-benzamide]
≥ 80%: percent control (mortality, anti-feedant effect or growth inhibition) at 200 ppm (Spodoptera littoralis) | percent effect (mortality or growth inhibition) at 200 ppm (Plutella xylostella) | percent effect (mortality or growth inhibition) at 200 ppm (Diabrotica Balteata) | mortality at 200 ppm (Myzus persicae) | mortality at 200 ppm (Tetranychus urticae) | mortality at 200 ppm (Thrips tabaci)

Cc1cc(C2=NO[C@@](c3cccc(C(F)(F)F)c3)(C(F)(F)F)C2)ccc1C(=O)NC1CC(Br)=NO1 (stereo partly drawn) [Compound A058]
≥ 80%: percent control (mortality, anti-feedant effect or growth inhibition) at 200 ppm (Spodoptera littoralis; application rate 200 ppm, cotton leaf discs, L1 larvae, 3 days after infestation) | percent effect (mortality or growth inhibition) at 200 ppm (Plutella xylostella; application rate 200 ppm, artificial diet, L2 larvae, 5 days after infestation) | percent effect (mortality or growth inhibition) at 200 ppm (Diabrotica Balteata; application rate 200 ppm, maize sprouts, L2 larvae, 4 days after infestation) | mortality at 200 ppm (Myzus persicae; application rate 200 ppm, sunflower leaf discs, population of mixed ages, 6 days after treatment, read-out: mortality) | mortality at 200 ppm (Tetranychus urticae; application rate 200 ppm, bean leaf discs, mixed population (mobile stages), 8 days after infestation, read-out: mortality) | mortality at 200 ppm (Thrips tabaci; application rate 200 ppm, sunflower leaf discs, population of mixed ages, 6 days after infestation, read-out: mortality)

Cc1cc(C2=NO[C@@](c3cc(Cl)c(F)c(Cl)c3)(C(F)(F)F)C2)ccc1C(=O)NC1CC(OCC(C)C)=NO1 (stereo partly drawn) [Compound A073]
≥ 80%: percent control (mortality, anti-feedant effect or growth inhibition) at 200 ppm (Spodoptera littoralis) | percent effect (mortality or growth inhibition) at 200 ppm (Plutella xylostella) | percent effect (mortality or growth inhibition) at 200 ppm (Diabrotica Balteata) | mortality at 200 ppm (Myzus persicae) | mortality at 200 ppm (Tetranychus urticae) | mortality at 200 ppm (Thrips tabaci)

Cc1cc(C2=NO[C@@](c3cc(Cl)c(F)c(Cl)c3)(C(F)(F)F)C2)ccc1C(=O)NC1CC(OCC(F)(F)C(F)(F)F)=NO1 (stereo partly drawn) [Compound A102]
≥ 80%: percent control (mortality, anti-feedant effect or growth inhibition) at 200 ppm (Spodoptera littoralis) | percent effect (mortality or growth inhibition) at 200 ppm (Plutella xylostella) | percent effect (mortality or growth inhibition) at 200 ppm (Diabrotica Balteata) | mortality at 200 ppm (Myzus persicae) | mortality at 200 ppm (Tetranychus urticae) | mortality at 200 ppm (Thrips tabaci)

Cc1cc(C2=NO[C@@](c3cc(Cl)c(Cl)c(Cl)c3)(C(F)(F)F)C2)ccc1C(=O)NC1CC(Cl)=NO1 (stereo partly drawn) [Compound A013, N-(3-chloro-4,5-dihydroisoxazol-5-yl)-2-methyl-4-[(5S)-5-(3,4,5-trichlorophenyl)-5-(trifluoromethyl)-4H-isoxazol-3-yl]benzamide]
≥ 80%: percent control (mortality, anti-feedant effect or growth inhibition) at 200 ppm (Spodoptera littoralis) | percent effect (mortality or growth inhibition) at 200 ppm (Plutella xylostella) | percent effect (mortality or growth inhibition) at 200 ppm (Diabrotica Balteata) | mortality at 200 ppm (Myzus persicae) | mortality at 200 ppm (Tetranychus urticae) | mortality at 200 ppm (Thrips tabaci)

CC1=NOC(NC(=O)c2ccc(C3=NO[C@@](c4cc(Cl)c(Cl)c(Cl)c4)(C(F)(F)F)C3)cc2Cl)C1 (stereo partly drawn) [Compound A025, 2-chloro-N-(3-methyl-4,5-dihydroisoxazol-5-yl)-4-[(5S)-5-(3,4,5-trichlorophenyl)-5-(trifluoromethyl)-4H-isoxazol-3-yl]benzamide]
≥ 80%: percent control (mortality, anti-feedant effect or growth inhibition) at 200 ppm (Spodoptera littoralis) | percent effect (mortality or growth inhibition) at 200 ppm (Plutella xylostella) | percent effect (mortality or growth inhibition) at 200 ppm (Diabrotica Balteata) | mortality at 200 ppm (Myzus persicae) | mortality at 200 ppm (Tetranychus urticae) | mortality at 200 ppm (Thrips tabaci)
